Assay results as given in patent publication US8906685B2, “Hanging drop devices, systems and/or methods” (The Regents of The University of Michigan, priority 2010, dated 2014).
pIC50: −log10 of the molar value.

What was measured:
A431.H9 cells = assay: anti-cancer drug sensitivity testing, conventional 2D culture in 96-well plates, alamarBlue cell viability; assay type: cell-based; details: Homo sapiens, % cell viability 96 hours after drug treatment, read-out: IC50 of A431.H9 cells cultured in conventional 2D condition
Procedure: To investigate the stability of long-term hanging drop spheroid culture using the designed array plate, osmolality measurements were performed while culturing three types of cells: kidney fibroblast cell (COS7), murine embryonic stem (mES) cell (ES-D3), and a human carcinoma cell that stably express mesothelin (A431.H9). […]
According to the procedure mentioned above, A431.H9 spheroids at the specified cell numbers were formed, and their growth media were exchanged every other day. […] Cellular viability was monitored at 24, 48, 72, and 96 hours of drug incubation using alamarBlue (Invitrogen). […] Following incubation, each A431.H9 hanging drop spheroid sample plate was read using a plate reader (FLx800 Fluorescence Microplate Reader, Biotek) at 525 nm excitation and 590 nm emission to obtain fluorescence intensity readout. As the fluorescence intensity of alamarBlue is directly proportional to cell number, the average percent cell viability for each drug concentration can be calculated easily by normalizing to the 0 μM untreated spheroid control. […]

A431.H9 spheroids [1] = assay: anti-cancer drug sensitivity testing, 3D spheroids in 384 hanging drop array plate, alamarBlue cell viability; assay type: cell-based; details: Homo sapiens
Procedure: To investigate the stability of long-term hanging drop spheroid culture using the designed array plate, osmolality measurements were performed while culturing three types of cells: kidney fibroblast cell (COS7), murine embryonic stem (mES) cell (ES-D3), and a human carcinoma cell that stably express mesothelin (A431.H9). Prior to performing hanging drop culture using the plate, ES-D3 cells were cultured in dishes coated with 0.1% w/v porcine gel (Sigma-Aldrich) and maintained in medium consisting of Dulbecco's Modified Eagle's Medium (DMEM) (Gibco 11960, Invitrogen) with 15% v/v fetal bovine serum (FBS) (Gibco 10082, Invitrogen), 4 mM L-glutamin (Invitrogen), 0.1 mM 2-mercapto-ethanol (Sigma-Aldrich), 0.02% v/v sodium pyruvate (Sigma-Aldrich), 100 U ml^−1 penicillin (Invitrogen), 100 U ml^−1 streptomycin (Invitrogen), and 1000 U ml^−1 ESGRO (Invitrogen) which contains leukemia inhibitory factor (LIF). COS7 and A431.H9 cells were cultured in DMEM (Gibco 11965, Invitrogen) with 10% v/v FBS (Gibco 10082, Invitrogen), and 1% v/v antibiotic-antimicotic (Gibco 15240, Invitrogen). All the cells were cultured in a humidified incubator (37° C. in an atmosphere of 5% CO^2). Cell suspensions for the hanging drop experiments were made by dissociating cells with 0.25% trypsin-EDTA (Gibco 25200, Invitrogen), centrifugation of dissociated cells at 1000 rpm for 1 min at room temperature, and re-suspended in growth media. Cell density was estimated using a hemocytometer.
On the spheroid culture plate, a 15 μl cell suspension was dispensed into the access hole at each cell culture site to form a hanging drop. In order to prevent evaporation, 4 ml of distilled water was added into the peripheral water reservoir. In addition, the plate was sandwiched by a well-plate lid and a 96-well plate filled with distilled water, and wrapped using a Parafilm. The growth media was exchanged every other day by taking 5 μl solution from a drop, and adding 7 μl fresh growth media into a drop. For the osmolality measurement, 10 μl sample solution was pipetted out from a drop and transferred to a vapor pressure osmometer (Vapro Model 5520, Wesco, Inc.) for analysis.
According to the procedure mentioned above, A431.H9 spheroids at the specified cell numbers were formed, and their growth media were exchanged every other day. TPZ and 5-FU stock solutions of four times the final testing concentrations (0, 0.1, 1, 10, 100, 1000, 5000 μM) were initially prepared in Dulbecco's phosphate buffered saline (D-PBS) (Gibco 14190, Invitrogen). On day 2 of A431.H9 spheroid culture, 5 μl of the appropriate concentration of TPZ (or 5-FU) stock solutions was subsequently added to each of the 15 μl A431.H9 cell hanging drop droplets. Cellular viability was monitored at 24, 48, 72, and 96 hours of drug incubation using alamarBlue (Invitrogen). Following manufacturer's protocol, 2 μl (one-tenth of each hanging drop sample volume) of alamarBlue was added to each A431.H9 hanging drop spheroid sample and incubated for 2 hours. Following incubation, each A431.H9 hanging drop spheroid sample plate was read using a plate reader (FLx800 Fluorescence Microplate Reader, Biotek) at 525 nm excitation and 590 nm emission to obtain fluorescence intensity readout. As the fluorescence intensity of alamarBlue is directly proportional to cell number, the average percent cell viability for each drug concentration can be calculated easily by normalizing to the 0 μM untreated spheroid control. […]

A431.H9 spheroids [2] = assay: time-lapse images of drug-treated spheroids in 384 hanging drop array plate; assay type: cell-based, human; details: all 3 spheroid sizes, 96 hours; for spheroid size over the drug treatment period: 10 μM drug; for spheroid viability / integrity over the drug treatment period: 5000 μM drug
Procedure: According to the procedure mentioned above, A431.H9 spheroids at the specified cell numbers were formed, and their growth media were exchanged every other day. TPZ and 5-FU stock solutions of four times the final testing concentrations (0, 0.1, 1, 10, 100, 1000, 5000 μM) were initially prepared in Dulbecco's phosphate buffered saline (D-PBS) (Gibco 14190, Invitrogen). On day 2 of A431.H9 spheroid culture, 5 μl of the appropriate concentration of TPZ (or 5-FU) stock solutions was subsequently added to each of the 15 μl A431.H9 cell hanging drop droplets. Cellular viability was monitored at 24, 48, 72, and 96 hours of drug incubation using alamarBlue (Invitrogen). Following manufacturer's protocol, 2 μl (one-tenth of each hanging drop sample volume) of alamarBlue was added to each A431.H9 hanging drop spheroid sample and incubated for 2 hours. Following incubation, each A431.H9 hanging drop spheroid sample plate was read using a plate reader (FLx800 Fluorescence Microplate Reader, Biotek) at 525 nm excitation and 590 nm emission to obtain fluorescence intensity readout. As the fluorescence intensity of alamarBlue is directly proportional to cell number, the average percent cell viability for each drug concentration can be calculated easily by normalizing to the 0 μM untreated spheroid control. Anti-cancer drug sensitivity experiments under 2D control conditions were performed in standard tissue culture treated 96-well plates (Corning Costar 3596), with everything else being the same as the 3D spheroid experiments. 50% of culture media was replaced by fresh media every other day.
FIGS. 3a-c show the time-lapse images of A431.H9 spheroids treated with TPZ at 0, 10, and 5000 μM for 3 different spheroid sizes (300, 1500, and 7500-cell spheroids). The control untreated A431.H9 spheroids at all 3 sizes still grow and proliferate properly over the duration of drug treatment. […] The IC50 of A431.H9 cells cultured in conventional 2D condition is about 50 μM, while the IC50 of the A431.H9 3D spheroids for all 3 sizes is about 8 μM. Contrary to most anti-cancer drugs, A431.H9 cells treated with TPZ are more resistant when cultured under 2D conditions rather than 3D conditions.
Similarly, FIGS. 4a-c show the time-lapse images of A431.H9 spheroids treated with 5-FU at 0, 10, and 5000 μM for 3 different spheroid sizes (300, 1500, and 7500-cell spheroids). Again, the control untreated A431.H9 spheroids at all 3 sizes all look healthy and still proliferate properly over the duration of drug treatment. […] By 96 hours after drug treatment, significant portions of cells had already dissociated from the A431.H9 spheroids, indicating drug cytotoxicity. […]

[3] = ALL3, 96 h, 3D condition, all 3 spheroid sizes (300, 1500, 7500-cell), 96 hours after drug treatment

| SMILES | pIC50 (A431.H9 cells) | pIC50 (A431.H9 spheroids [1]; 96 h, 300-cell spheroids, 96 hours after treatment) | pIC50 (A431.H9 spheroids [1]; 96 h, 1500-cell spheroids, 96 hours after treatment) | pIC50 (A431.H9 spheroids [1]; 96 h, 7500-cell spheroids, 96 hours after treatment) | pIC50 (A431.H9 spheroids [1]; [3]) | spheroid size over the drug treatment period (A431.H9 spheroids [2]) | spheroid viability / integrity over the drug treatment period (A431.H9 spheroids [2]) |
| --- | --- | --- | --- | --- | --- | --- | --- |
| O=c1[nH]cc(F)c(=O)[nH]1 [5-FU, 5-fluorouracil] | ~7.00 | ~5.52 | ~6.00 | ~4.05 | 4.00 to 6.00 | slowly become smaller | spheroid integrity was greatly compromised |
| Nc1n[n+]([O-])c2ccccc2[n+]1[O-] [TPZ, tirapazamine] | ~4.30 | – | – | – | ~5.10 | stayed relatively constant | poor viability |
